Test results taken from US10246411B2, “(Z)-3,4,5-trimethoxystyrylbenzenesulfonamides as potential anticancer agents” (COUNCIL OF SCIENTIFIC & INDUSTRIAL RESEARCH, priority 2014, dated 2019).

What was measured:
MOLT-4 = assay: In vitro cytotoxicity (NCI protocol, SRB), MOLT-4; conditions: Homo sapiens, MOLT-4, 48 h
HOP-62 = assay: In vitro cytotoxicity (NCI protocol, SRB), HOP-62; conditions: Homo sapiens, HOP-62, 48 h
HOP92 = assay: In vitro cytotoxicity (NCI protocol, SRB), HOP92; conditions: Homo sapiens, HOP-92, 48 h
HS 578T = assay: In vitro cytotoxicity (NCI protocol, SRB), HS 578T; conditions: Homo sapiens, 48 h
SF-539 = assay: In vitro cytotoxicity (NCI protocol, SRB), SF-539; conditions: Homo sapiens, 48 h
TK-10 = assay: In vitro cytotoxicity (NCI protocol, SRB), TK-10; conditions: Homo sapiens, TK-10, 48 h
OVCAR-8 = assay: In vitro cytotoxicity (NCI protocol, SRB), OVCAR-8; conditions: Homo sapiens, OVCAR-8, 48 h
MALME-3M = assay: In vitro cytotoxicity (NCI protocol, SRB), MALME-3M; conditions: Homo sapiens, 48 h
RXF 393 = assay: In vitro cytotoxicity (NCI protocol, SRB), RXF 393; conditions: Homo sapiens, RXF 393, 48 h
OVCAR-3 = assay: In vitro cytotoxicity (NCI protocol, SRB), OVCAR-3; conditions: Homo sapiens, OVCAR-3, 48 h
A549/ATCC = assay: In vitro cytotoxicity (NCI protocol, SRB), A549/ATCC; conditions: Homo sapiens, A549, 48 h
A498 = assay: In vitro cytotoxicity (NCI protocol, SRB), A498; conditions: Homo sapiens, A498, 48 h
OVCAR-4 = assay: In vitro cytotoxicity (NCI protocol, SRB), OVCAR-4; conditions: Homo sapiens, OVCAR-4, 48 h
SK-OV-3 = assay: In vitro cytotoxicity (NCI protocol, SRB), SK-OV-3; conditions: Homo sapiens, SK-OV-3, 48 h
HT29 = assay: In vitro cytotoxicity (NCI protocol, SRB), HT29; conditions: Homo sapiens, HT-29, 48 h
SNB -19 = assay: In vitro cytotoxicity (NCI protocol, SRB), SNB -19; conditions: Homo sapiens, SNB-19, 48 h
SF-268 = assay: In vitro cytotoxicity (NCI protocol, SRB), SF-268; conditions: Homo sapiens, SF-268, 48 h
MDA-MB-435 = assay: In vitro cytotoxicity (NCI protocol, SRB), MDA-MB-435 (melanoma panel); conditions: Homo sapiens, MDA-MB-435, 48 h, Melanoma MDA-MB-435, 48 h exposure
HCT-15 = assay: In vitro cytotoxicity (NCI protocol, SRB), HCT-15; conditions: Homo sapiens, HCT-15, 48 h
PC-3 = assay: In vitro cytotoxicity (NCI protocol, SRB), PC-3; conditions: Homo sapiens, PC-3, 48 h
SK-MEL-5 = assay: In vitro cytotoxicity (NCI protocol, SRB), SK-MEL-5; conditions: Homo sapiens, SK-MEL-5, 48 h
HL-60(TB) = assay: In vitro cytotoxicity (NCI protocol, SRB), HL-60(TB); assay type: cell-based; conditions: Homo sapiens, Leukemia HL-60(TB), 48 h exposure
SF-295 = assay: In vitro cytotoxicity (NCI protocol, SRB), SF-295; conditions: Homo sapiens, SF-295, 48 h
RPMI-8226 = assay: In vitro cytotoxicity (NCI protocol, SRB), RPMI-8226; conditions: Homo sapiens, RPMI-8226, 48 h
OVCAR-5 = assay: In vitro cytotoxicity (NCI protocol, SRB), OVCAR-5; conditions: Homo sapiens, OVCAR-5, 48 h
UACC-62 = assay: In vitro cytotoxicity (NCI protocol, SRB), UACC-62; conditions: Homo sapiens, UACC-62, 48 h
SW-620 = assay: In vitro cytotoxicity (NCI protocol, SRB), SW-620; conditions: Homo sapiens, SW-620, 48 h
HCT-116 = assay: In vitro cytotoxicity (NCI protocol, SRB), HCT-116; conditions: Homo sapiens, HCT-116, 48 h
786-0 = assay: In vitro cytotoxicity (NCI protocol, SRB), 786-0; conditions: Homo sapiens, 786-0, 48 h
DU-145 = assay: In vitro cytotoxicity (NCI protocol, SRB), DU-145; conditions: Homo sapiens, DU-145, 48 h
SR = assay: In vitro cytotoxicity (NCI protocol, SRB), SR; conditions: Homo sapiens, 48 h
SK-MEL-28 = assay: In vitro cytotoxicity (NCI protocol, SRB), SK-MEL-28; conditions: Homo sapiens, SK-MEL-28, 48 h

With `COc1ccc(S(=O)(=O)Nc2cc(/C=C\c3cc(OC)c(OC)c(OC)c3)cc(OC)c2OC)cc1` [13a, (Z)—N-(2,3-dimethoxy-5-(3,4,5-trimethoxystyryl)phenyl)-4-methoxybenzenesulfonamide] as the molecule, how does the GI50 (MOLT-4) read?
Its GI50 is 0.0495 µM.

What about the GI50 (HOP-62) of the same molecule?
Its GI50 is 0.0405 µM.

What about the GI50 (HOP92) of the same molecule?
Its GI50 is 1.75 µM.

What about the GI50 (HS 578T) of the same molecule?
The GI50 was 0.0452 µM.

And the GI50 (SF-539)?
The GI50 was 0.0253 µM.

What about the GI50 (TK-10) of the same molecule?
Its GI50 is 0.065 µM.

What about the GI50 (OVCAR-8) of the same molecule?
Its GI50 is 0.0459 µM.

And the GI50 (MALME-3M)?
The GI50 was 12.6 µM.

What about the GI50 (RXF 393) of the same molecule?
The GI50 was 0.0401 µM.

And the GI50 (OVCAR-3)?
The GI50 was 0.0345 µM.

And the GI50 (A549/ATCC)?
The GI50 was 0.0474 µM.

And the GI50 (A498)?
Its GI50 is 0.0217 µM.

And the GI50 (OVCAR-4)?
Its GI50 is 0.0842 µM.

What about the GI50 (SK-OV-3) of the same molecule?
The GI50 was 0.0378 µM.

And the GI50 (HT29)?
Its GI50 is 0.0331 µM.

What about the GI50 (SNB -19) of the same molecule?
Its GI50 is 0.0601 µM.

And the GI50 (SF-268)?
Its GI50 is 0.0575 µM.

And the GI50 (MDA-MB-435)?
The GI50 was 0.0211 µM.

And the GI50 (HCT-15)?
Its GI50 is 0.0358 µM.

What about the GI50 (PC-3) of the same molecule?
Its GI50 is 0.038 µM.

What about the GI50 (SK-MEL-5) of the same molecule?
Its GI50 is 0.0359 µM.

And the GI50 (HL-60(TB))?
Its GI50 is 0.0234 µM.

What about the GI50 (SF-295) of the same molecule?
Its GI50 is 0.0311 µM.

What about the GI50 (RPMI-8226) of the same molecule?
The GI50 was 0.0459 µM.

What about the GI50 (OVCAR-5) of the same molecule?
Its GI50 is 0.0499 µM.

What about the GI50 (UACC-62) of the same molecule?
Its GI50 is 0.0461 µM.

What about the GI50 (SW-620) of the same molecule?
Its GI50 is 0.0439 µM.

And the GI50 (HCT-116)?
Its GI50 is 0.035 µM.

And the GI50 (786-0)?
Its GI50 is 0.0579 µM.

And the GI50 (DU-145)?
Its GI50 is 0.0416 µM.

What about the GI50 (SR) of the same molecule?
Its GI50 is 0.0352 µM.

And the GI50 (SK-MEL-28)?
Its GI50 is 0.0765 µM.
